Source: PMC5515969, “Effects of 31 FDA approved small-molecule kinase inhibitors on isolated rat liver mitochondria” (Archives of Toxicology, 2016)
Where a name gives a salt, the structure may show the parent alone. Read-outs that look alike come from different tables or passages of the source.

Experiments:
[1] = cited from earlier work
[2] = cited from earlier work; remark: listed apart in the source
[3] = system: isolated rat liver mitochondria
[4] = system: isolated rat liver mitochondria; assay: Mitochondrial ROS production (CM-H2DCFDA)
RCC V = RCC V activity in submitochondrial particles; type: biochemical, rat; conditions: relative to DMSO treated samples; on RCC V at 5XCmax: key: 0 indicates that the drug had no effects (negative)
Description: (§1) KIs were incubated with submitochondrial particles (1 mg/ml) for 15 min and then RCC I–V activities measured. […] The activities of DMSO-treated samples (controls) were set as 1. […] The difference between the activity from rotenone-containing buffer and rotenone-absent buffer was considered as RCC I activity. […] For measuring RCC I/V and II activity, the changes in absorbance at 340 and 600 nm, respectively, were determined every 1 min for 6 min. For measuring RCC III and RCC IV, the changes in absorbance at 550 nm were measured every 10 s for 2 min.

[5] = system: isolated rat liver mitochondria; assay: Mitochondrial inner membrane potential (MMP), Rhodamine 123; type: biochemical; conditions: difference in signal between KI and DMSO treated samples at the end of experiments
Description: Fig. 3 KI effects on mitochondrial inner membrane potential (MMP). […] In a, c, data are means and standard derivations from three separate experiments. *p < 0.05 as compared to DMSO-treated samples at the end of experiments. In b, data are means of two independent experiments

[6] = system: isolated rat liver mitochondria; assay: Mitochondrial swelling (absorbance at 535 nm); type: biochemical; conditions: difference in signal between KI and DMSO treated samples at the end of experiments; on Swelling 5XCmax: key: 0 indicates that the drug had no effects (negative)
RCC II = target: T1, RCC II (Rattus norvegicus, UniProt P21913+Q641Z9+Q6PCT8+Q920L2); assay: RCC II activity in submitochondrial particles; type: biochemical; parameters: key: activity relative to DMSO-treated controls (control set as 1 = 100%); conditions: relative to DMSO treated samples
T1 construct: Submitochondrial particles were prepared by subjecting the intact mitochondria to three successive freeze–thaw cycles; from tissue; host or cells: rat liver mitochondria, used as submitochondrial particles
T1 sequence (Q920L2 35-656): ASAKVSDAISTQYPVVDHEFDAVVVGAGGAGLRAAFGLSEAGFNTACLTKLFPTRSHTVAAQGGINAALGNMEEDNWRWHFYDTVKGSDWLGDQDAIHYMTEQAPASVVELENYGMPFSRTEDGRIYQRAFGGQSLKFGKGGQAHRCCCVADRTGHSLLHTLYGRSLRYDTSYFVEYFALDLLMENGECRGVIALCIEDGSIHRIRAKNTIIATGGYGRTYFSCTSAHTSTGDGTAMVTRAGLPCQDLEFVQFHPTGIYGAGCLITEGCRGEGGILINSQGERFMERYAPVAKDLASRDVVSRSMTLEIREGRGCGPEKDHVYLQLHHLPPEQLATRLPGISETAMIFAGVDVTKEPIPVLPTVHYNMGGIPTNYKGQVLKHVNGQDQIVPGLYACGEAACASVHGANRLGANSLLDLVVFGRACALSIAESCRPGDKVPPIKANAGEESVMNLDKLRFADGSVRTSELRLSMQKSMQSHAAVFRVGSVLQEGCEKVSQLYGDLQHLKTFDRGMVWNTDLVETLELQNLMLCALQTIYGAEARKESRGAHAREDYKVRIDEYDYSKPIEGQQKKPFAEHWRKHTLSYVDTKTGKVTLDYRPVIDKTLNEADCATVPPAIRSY
T1 sequence (P21913 31-282): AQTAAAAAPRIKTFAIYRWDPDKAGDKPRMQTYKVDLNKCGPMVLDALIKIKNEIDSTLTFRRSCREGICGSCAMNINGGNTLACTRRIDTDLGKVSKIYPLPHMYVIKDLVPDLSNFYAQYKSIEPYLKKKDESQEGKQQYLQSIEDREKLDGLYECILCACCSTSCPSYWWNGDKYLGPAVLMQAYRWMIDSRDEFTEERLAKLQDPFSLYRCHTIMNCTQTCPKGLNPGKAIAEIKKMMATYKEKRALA
T1 sequence (Q641Z9 1-169): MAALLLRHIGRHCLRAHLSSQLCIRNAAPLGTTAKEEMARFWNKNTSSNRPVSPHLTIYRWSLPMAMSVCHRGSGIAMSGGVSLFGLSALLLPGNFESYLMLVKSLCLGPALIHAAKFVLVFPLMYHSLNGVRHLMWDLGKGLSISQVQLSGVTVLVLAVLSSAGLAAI
T1 sequence (Q6PCT8 57-159): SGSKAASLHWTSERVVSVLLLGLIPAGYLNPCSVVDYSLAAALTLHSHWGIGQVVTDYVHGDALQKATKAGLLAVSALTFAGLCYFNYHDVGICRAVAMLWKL
Description: as §1

RCC I = RCC I activity in submitochondrial particles; type: biochemical, rat; parameters: key to RCC I at 10XCmax / RCC I at 100XCmax / RCC I at 50XCmax / RCC I at 30XCmax / RCC I at 20XCmax: activity relative to DMSO-treated controls (control set as 1 = 100%); conditions: 10XCmax; relative to DMSO treated samples
Description: as §1

RCC III = RCC III activity in submitochondrial particles; type: biochemical, rat; parameters: key to RCC III at 100XCmax: activity relative to DMSO-treated controls (control set as 1 = 100%); conditions: 100XCmax; relative to DMSO treated samples
Description: as §1

RCC IV = RCC IV activity in submitochondrial particles; type: biochemical, rat; parameters: key to RCC IV at 50XCmax / RCC IV at 100XCmax: activity relative to DMSO-treated controls (control set as 1 = 100%); conditions: 50XCmax; relative to DMSO treated samples; in %
Description: as §1

[7] = system: isolated rat liver mitochondria; assay: Mitochondrial oxygen consumption (glutamate/malate or succinate driven, state 4 and state 3); type: biochemical; conditions: DMSO treated samples set as 1; on State 3 respiration driven by succinate at 10XCmax: key: 0 indicates that the drug had no effects (negative); on State 3 respiration driven by succinate at 1XCmax: key: 0 indicates that the drug had no effects (negative)
Description: Rats were anesthetized by an intraperitoneal injection of Nembutal and the liver perfused with PBS to remove the blood. The liver was then cut into small pieces and homogenized using a Dounce type homogenizer in the ice-cold isolation buffer (IB) containing 200 mM sucrose, 10 mM Tris-MOPS, 1 mM EGTA (pH 7.4). The sample was then centrifuged at 600g for 10 min. The supernatant was further centrifuged at 7500g for 10 min, and the pellets was washed once with the IB and centrifuged again at 7500g for 10 min to collect mitochondria. […] Before drug treatment, the protein concentration was adjusted to 1 mg/ml using appropriate buffer. […] Briefly, mitochondrial and cytosolic fractions from four different preparations using four rats were diluted using the Laemmli protein loading buffer and subject to SDS-PAGE with 4–20% gradient gels. The proteins were blotted to PVDF membranes and detected using antibodies against GAPDH, ATP5A, UQCRC2, SDHB, and NDUFB8.
The aliquoted stock solutions were kept for less than one month and each tube was used only once. The KIs were added to the mitochondria at 1:1000 dilutions. […] The Cmax data were from clinical trials which used FDA recommend dosages, route of administration, and duration. […] The final concentration of DMSO for drug treatment was always 0.1%, and control treatments were 0.1% DMSO.
Briefly, mitochondria were incubated with the KIs for 5 min, and then split evenly and loaded to the sample tubes of two Oxytherm systems (Hansatech Instruments Ltd), with one system used for measuring glutamate/malate driven respiration and the other succinate-driven respiration, both of which were defined as state 4 respiration. After 3 min, ADP was added to measure the maximal oxygen consumption rate, which was defined as state 3 respiration. […] The oxygen consumption rate of DMSO-treated samples (controls) was set as 1.

[8] = human therapeutic Cmax at FDA recommended dosages, ref product labeling and drug approval packages at the official FDA website
[9] = read-out: Cmax at µM, therapeutic maximal blood concentration, ref product labeling
[10] = therapeutic maximal blood concentration, ref product labeling

In the case of `CN(C)C/C=C/C(=O)Nc1cc2c(Nc3ccc(F)c(Cl)c3)ncnc2cc1O[C@H]1CCOC1` [Afatinib], the Cmax [1, 8] is listed as 0.04 µM, the “labeling for DILI” value ([2]; W&P warnings and precautions, BBW black box warnings, ref FDA product labeling) is listed as “W&P: ALT↑/monitoring” and the “DILI potential (based on labeling)” value ([2]; ref FDA product labeling) is listed as 1.
For `Cc1nc(Nc2ncc(C(=O)Nc3c(C)cccc3Cl)s2)cc(N2CCN(CCO)CC2)n1` [Dasatinib], the Cmax [1, 8] is listed as 0.18 µM and the “DILI potential (based on labeling)” value ([2]; ref FDA product labeling) is listed as 0.
For `Cc1ccc(NC(=O)c2ccc(CN3CCN(C)CC3)cc2)cc1Nc1nccc(-c2cccnc2)n1` [Imatinib], the “DILI potential (based on labeling)” value ([2]; in vivo) is listed as 1 and the “labeling for DILI” value ([2]; in vivo) is listed as “W&P: fatal DILI”.
In the case of `CC(=O)c1c(C)c2cnc(Nc3ccc(N4CCNCC4)cn3)nc2n(C2CCCC2)c1=O` [Palbociclib], the Cmax [1, 8] is given as 0.24 µM and the “DILI potential (based on labeling)” value ([2]; ref FDA product labeling) is given as 0.
For `C[C@@H]1CCN(C(=O)CC#N)C[C@@H]1N(C)c1ncnc2[nH]ccc12` [Tofacitinib], the Cmax [1, 8] is given as 0.09 µM and the “lowest concentration causing cytochrome c release” value ([3]; rat, 30 min, pH 7.4) is given as 100 fold Cmax.
For `[Ca+2].[Cl-].[Cl-]` [calcium chloride], the “increase in ROS production” value ([4]; positive control, 100 µM CaCl2, DMSO-treated = 1) was “threefold”.
For `Cc1ccc(NC(=O)c2ccc(CN3CCN(C)CC3)cc2)cc1Nc1nccc(-c2cccnc2)n1` [imatinib mesylate], the Cmax [1, 9] is listed as 2 µM, the “Cmax” value [1, 10] is listed as 986 ng/mL and the “Labeling for DILI” value ([2]; in vivo) is listed as “W&P: fatal DILI”.
For `CNS(=O)(=O)C[C@H]1CC[C@H](N(C)c2ncnc3[nH]ccc23)CC1` [oclacitinib], the “cytochrome c release from intact mitochondria” value [3] was “significant cytochrome c release”.
In the case of `C[C@@H]1CCN(C(=O)CC#N)C[C@@H]1N(C)c1ncnc2[nH]ccc12` [tofacitinib citrate], the “RCC V at 5XCmax” value (RCC V; 5XCmax) is reported as 0, the “RCC V at 50XCmax” value (RCC V; 50XCmax) is reported as 0 and the “MMP measured by Rhodamine 123 at 1XCmax” value ([5]; 1XCmax) is reported as 0. The “MMP measured by Rhodamine 123 at 2.5XCmax” value ([5]; 2.5XCmax) was 0, the “MMP measured by Rhodamine 123 at 5XCmax” value ([5]; 5XCmax) was 0 and the “MMP measured by Rhodamine 123 at 10XCmax” value ([5]; 10XCmax) was 0. For the same compound, the “MMP measured by Rhodamine 123 at 20XCmax” value ([5]; 20XCmax) was 0, the “MMP measured by Rhodamine 123 at 30XCmax” value ([5]; 30XCmax) was 0 and the “MMP measured by Rhodamine 123 at 50XCmax” value ([5]; 50XCmax) was 0. The “MMP measured by Rhodamine 123 at 100XCmax” value ([5]; 100XCmax) was 0, the “Swelling 1XCmax” value ([6]; 1XCmax) was 0 and the “Swelling 2.5XCmax” value ([6]; 2.5XCmax) was 0. The “Swelling 5XCmax” value ([6]; 5XCmax) was 0, the “Swelling 10XCmax” value ([6]; 10XCmax) was 0 and the “Swelling 20XCmax” value ([6]; 20XCmax) was 0. The “Swelling 30XCmax” value ([6]; 30XCmax) was 0, the “Swelling 50XCmax” value ([6]; 50XCmax) was 0 and the “Swelling 100XCmax” value ([6]; 100XCmax) was 0. The Cmax [1, 9] was 0.089 µM, the “Cmax” value [1, 10] was 45.1 ng/mL and the “RCC II at 1.0XCmax” value (RCC II; 1.0XCmax) was 0. For the same compound, the “RCC II at 2.5XCmax” value (RCC II; 2.5XCmax) was 0, the “RCC II at 5XCmax” value (RCC II; 5XCmax) was 0 and the “RCC II at 10XCmax” value (RCC II; 10XCmax) was 0. The “RCC II at 20XCmax” value (RCC II; 20XCmax) was 0, the “RCC II at 30XCmax” value (RCC II; 30XCmax) was 0 and the “RCC II at 50XCmax” value (RCC II; 50XCmax) was 0. For the same compound, the “RCC II at 100XCmax” value (RCC II; 100XCmax) was 0, the “RCC I at 10XCmax” value (RCC I) was 0 and the “RCC III at 100XCmax” value (RCC III) was 0. For the same compound, the “RCC IV at 50XCmax” value (RCC IV) was 0, the “State 3 respiration driven by succinate at 1XCmax” value ([7]; 1XCmax) was 0 and the “State 4 respiration driven by succinate at 1XCmax” value ([7]; 1XCmax) was 0. For the same compound, the “State 3 respiration driven by succinate at 2.5XCmax” value ([7]; 2.5XCmax) was 0, the “State 4 respiration driven by succinate at 2.5XCmax” value ([7]; 2.5XCmax) was 0 and the “State 3 respiration driven by succinate at 5XCmax” value ([7]; 5XCmax) was 0. The “State 4 respiration driven by succinate at 5XCmax” value ([7]; 5XCmax) was 0, the “State 3 respiration driven by succinate at 10XCmax” value ([7]; 10XCmax) was 0 and the “State 4 respiration driven by succinate at 10XCmax” value ([7]; 10XCmax) was 0. For the same compound, the “State 3 respiration driven by succinate at 20XCmax” value ([7]; 20XCmax) was 0, the “State 4 respiration driven by succinate at 20XCmax” value ([7]; 20XCmax) was 0 and the “State 3 respiration driven by succinate at 30XCmax” value ([7]; 30XCmax) was 0. For the same compound, the “State 4 respiration driven by succinate at 30XCmax” value ([7]; 30XCmax) was 0, the “State 3 respiration driven by succinate at 50XCmax” value ([7]; 50XCmax) was 0 and the “State 4 respiration driven by succinate at 50XCmax” value ([7]; 50XCmax) was 0. The “State 3 respiration driven by succinate at 100XCmax” value ([7]; 100XCmax) was 0, the “State 4 respiration driven by succinate at 100XCmax” value ([7]; 100XCmax) was 0 and the “ROS measured by CM-H2DCFDA at 1XCmax” value ([4]; 1XCmax, DMSO treated samples set as 1) was 0. The “ROS measured by CM-H2DCFDA at 2.5XCmax” value ([4]; 2.5XCmax, DMSO treated samples set as 1) was 0, the “ROS measured by CM-H2DCFDA at 5XCmax” value ([4]; 5XCmax, DMSO treated samples set as 1) was 0 and the “ROS measured by CM-H2DCFDA at 10XCmax” value ([4]; 10XCmax, DMSO treated samples set as 1) was 0. The “ROS measured by CM-H2DCFDA at 20XCmax” value ([4]; 20XCmax, DMSO treated samples set as 1) was 0, the “ROS measured by CM-H2DCFDA at 30XCmax” value ([4]; 30XCmax, DMSO treated samples set as 1) was 0 and the “ROS measured by CM-H2DCFDA at 50XCmax” value ([4]; 50XCmax, DMSO treated samples set as 1) was 0. The “ROS measured by CM-H2DCFDA at 100XCmax” value ([4]; 100XCmax, DMSO treated samples set as 1) was 0, the “Cytochrome c release 1XCmax” value ([3]; 1XCmax, positive control alamethicin treated samples) was 0 and the “Cytochrome c release 2.5XCmax” value ([3]; 2.5XCmax, positive control alamethicin treated samples) was 0. For the same compound, the “Cytochrome c release 5XCmax” value ([3]; 5XCmax, positive control alamethicin treated samples) was 0, the “Cytochrome c release 10XCmax” value ([3]; 10XCmax, positive control alamethicin treated samples) was 0 and the “Cytochrome c release 20XCmax” value ([3]; 20XCmax, positive control alamethicin treated samples) was 0. For the same compound, the “Cytochrome c release 30XCmax” value ([3]; 30XCmax, positive control alamethicin treated samples) was 0, the “Cytochrome c release 50XCmax” value ([3]; 50XCmax, positive control alamethicin treated samples) was 0 and the “Cytochrome c release 100XCmax” value ([3]; 100XCmax, positive control alamethicin treated samples) was 7.22±1.11 percentage of the positive control group.
